This note sets out measurements from a melting point compilation (Tetko et al.; mined from patent text by program, amines drawn as free bases though some values may be those of a salt).

SMILES strings stand for the structures. Some results are limits rather than exact numbers.

By melting point is commonly meant the temperature of the solid-liquid transition. The compound `CC(C)(C)OC(=O)N1CCCC1C(=O)Nc1cccc(-c2cc(-c3ccccc3O)nc(NC(=O)c3cccs3)c2C#N)c1` (stereo not drawn) gave a melting point of 167 to 169 °C. With `C[C@@H](F)c1nc(N)nc(N[C@H]2c3ccccc3C[C@@H]2C)n1`, the melting point fell in the range of 146 to 150 °C. `COCCOc1cc(NS(=O)(=O)c2ccccn2)c2[nH]c(C3=NCC(CN4CCS(=O)(=O)CC4)S3)cc2c1` (stereo not drawn) yielded a melting point of 218 to 219 °C. In turn, `Cc1c(-c2ccccc2)n(Cc2ccccc2)c2ccc(Br)cc12` yielded a melting point of 113 to 116 °C. The same measure for `CC(C)NCC1(O)COc2ccc([N+](=O)[O-])cc2OC1` (stereo not drawn): 97.5 to 99 °C; for `N#CCNc1nc(N2CCc3ccccc3CC2)c(C#N)c(=O)[nH]1`: above 200 °C; for `CC1(C)OC(=O)C(Cc2c[nH]c3ccc(Br)cc23)C(=O)O1`: 179 to 181 °C. The same measure for `COc1cccc2c1C(C)(C)CC(O)(C(F)(F)F)C2Nc1cccc2c1cnn2C` (stereo not drawn): 172 to 174 °C; for `C=C1CC2(CC)C(=O)CC(OC(C)=O)C2C2CCC3=CC(=O)CCC3C12` (stereo not drawn): 176 °C; for `CC(=O)NC(=S)NCC1CC2c3cccc4[nH]cc(c34)CC2N(C)C1` (stereo not drawn): 204 to 205 °C. In turn, `CC(c1cc(C(C)(C)C#N)cc(C(C)(C)C#N)c1)n1ccnc1` (stereo not drawn) gave a melting point of 77 to 80 °C. Consider `CC1CN(c2cc3c(c(NCc4ccccc4)c2F)c(=O)c(C(=O)O)cn3C2CC2)CCN1` (stereo not drawn), for which the melting point lay within 129 to 130 °C. In the case of `CC(=O)CC(=O)NC1CCCCC1` it was 66 to 69 °C. `Cc1nn(-c2cc(C(F)(F)F)ccc2Cl)cc1C(=O)N(CC(=O)O)c1ccc(OCC(C)(C)C)c(C#N)c1` had a melting point of 189 to 190 °C. In the case of `COc1ccc(C(Sc2ccccc2N)C(O)C(=O)O)cc1` (stereo not drawn) it was 167 to 168 °C; in that of `C=CCN(CC=C)C(=O)n1cnc(S(=O)C(C)C)n1` (stereo not drawn), 32 to 34 °C.

In the case of `Cc1nn(CC(F)F)c(-c2ccc(F)cc2)c1-c1ccc2c(c1)NC(=O)CO2`, the melting point was determined as 168 °C. Compound `Cc1ccc(S(=O)(=O)N(C)c2ccc(F)cc2[N+](=O)[O-])cc1` displayed a melting point of 93.5 to 94.5 °C. As to `CCn1cc(C(=O)O)c(=O)c2cc(F)c(N3CCN4CCC3C4)nc21` (stereo not drawn), the melting point is 228 to 229 °C. In the case of `CCOC(=O)C1=Cc2cc(Br)ccc2NCC1` it was 120 to 121 °C; in that of `CC1(C)CN(C2CC3(C)C(CCC4C5CCC(C(=O)CSC#N)C5(C)CC(=O)C43)CC2O)CCO1` (stereo not drawn), 197 to 198 °C; in that of `CCOc1ccc2c(ccn2C)c1O`, 69 to 70 °C. As to `CC1(C)OCCn2c1nc(C(=O)NCc1ccc(F)cc1P(=O)(O)OCc1ccccc1)c(OCc1ccccc1)c2=O`, the melting point stood at 142 °C. Compound `CC(=O)Nc1nc2c(Oc3cc(-c4ccc(C(F)(F)F)cc4NC(=O)OC(C)(C)C)ncn3)cccc2s1` yielded a melting point of 194 to 195 °C. Compound `COc1ccc2c3c([nH]c2c1)CC(NC(C)=O)CC3` (stereo not drawn) returned a melting point of 192 to 193 °C.

`C[C@@H]1CCCN1CCc1ccc2cc(-c3ccc(C#N)cc3)ccc2n1` yielded a melting point of 164 °C. The same measure for `COc1cc(-n2cnc(CO)c2)cc(C(F)(F)F)c1`: 133 to 134 °C; for `CC(C)COC(=O)N1CCN(c2nc3cccccc-3n2)CC1`: 130 to 133 °C; for `CCC(C)(C)c1c(OCc2ncnn2C)nn2c(-c3ccccc3F)nncc12`: 89 to 91 °C. The same measure for `CC(=O)c1ccc(NCCCN2CCC(c3noc4cc(F)ccc34)CC2)c(O)c1`: 150 to 152 °C. In the case of `Cc1ccc(-c2nc(N)ncc2-c2ccc(=O)n(C)n2)cc1`, the melting point worked out at 230 °C.

`COc1cc(C2=C(c3cn(CCCNC(=O)C(CO)NC(=O)OC(C)(C)C)c4ccccc34)C(=O)NC2=O)cc(OC)c1OC` (stereo not drawn) had a melting point of 112 to 114 °C. The same measure for `CCCCOC(=O)c1c(-c2ccncc2)[nH]c(-c2ccncc2)c1C`: 182 to 186 °C.
